From patent US20140213508A1, “ANTIVIRAL MACROCYCLES” (priority 2012, published 2014) come the findings set out here.

Like-named read-outs stand apart in the source and are kept apart here. Numbered stars: 1 amine (or outer) side, 2 acyl side, 3 side chain; on linkers, the order of the positions; unused ones are H or OH. Square brackets hold non-standard residues; d marks the D form. Peptide text beside a SMILES is read from it. ξ: configuration not given here. X1 = CN(C)C1(CS[C@H](C(=O)[*:2])N(C)[*:1])CCC1; ξNMeBmt = C/C=C/C[C@@H](C)[C@@H](O)C(NC)C(=O)O; X2 = CC(C)[C@H](C(=O)[*:2])N(Cc1ccccc1)[*:1]; X3 = CCNC1(CS[C@H](C(=O)[*:2])N(C)[*:1])CC1; X4 = CNC1(CS[C@H](C(=O)[*:2])N(C)[*:1])CC1; NMeLeu(4-OH) = CN[C@@H](CC(C)(C)O)C(=O)O; NMeL = CN[C@@H](CC(C)C)C(=O)O; dNMeL = CN[C@H](CC(C)C)C(=O)O; dNMeV = CN[C@@H](C(=O)O)C(C)C; dAbu = CC[C@@H](N)C(=O)O Bounds are passed on as bounds.

In test [1] the test system is IFN-λ1 (IL-29) production in human peripheral blood mononuclear cells. In words: IL-29 production in human PBMCs (ELISA). The settings on record: 2 μM for 24 hours; for pg/mL IL29 Av.: average; for pg/mL IL29: individual wells. Type of test: cell-based.
Test [2] has as its system Dengue virus DENV1 strain. In words: Dengue virus infection and replication assay in HuH7 cells. The settings on record: read-out: IC50 Dengue virus production. Type of test: cell-based. As to the method: Compounds A, B, and F were tested for activity against Dengue virus in a cell-based assay of viral infection and replication. HuH7 cells were infected with the DENV1 strain (multiplicity of infection=0.1). After a 1 hour incubation to allow viral attachment and infection, compounds were added (at concentrations of 1, 3 and 9 μM, in triplicate). Incubation was continued for 5 days, and cells and media were then harvested for analysis. Viral replication was assessed by a real-time RT-PCR assay for virus present in the media, and cells were assayed for metabolic viability (MTT assay).

The subject of test [3] is HBV entry into cultured hepatocytes (HepaRG cells). The experiment in a line: Inhibition of HBV entry into HepaRG cells. Type of test: cell-based. The conditions noted are these: Hepatitis B virus, 288 h, read-out: IC50 HBV entry.
Test [4] concerns IFN-α production in human peripheral blood mononuclear cells. In words: IFN-α production in human PBMCs (ELISA). Type of test: cell-based. The settings on record: 2 μM for 24 hours, individual wells. The procedure: Cryopreserved commercial or previously isolated PBMCs from HCV donors cryopreserved in RPMI1640)/Fetal Bovine/DMSO solution (50/40/10 v/v) were tested with compounds provided herein. […]
PBMC were cultured for 24 hours at 37° C. in RPMI cell culture medium in flat bottom 48 well-plates. Each well received 180 μL of cell suspension (2×10^6 cells/mL). […] At the end of the incubation, the plates are centrifuged at 200 times g for 5 minutes. The cell supernatants are collected and assayed by ELISA for cytokines IFN-α's (the detection reagent recognized 14 of the 15 known human IFN-α subtypes) and IFN-λ1 (IL-29). The cell pellet is washed twice with cold PBS and ATP content are determined by adding 100 μL per well of the Cell Titer Glo® (Promega, Madison, Wis.). Plates are then placed at −80° C. until protein analysis. For the protein analysis, plates are thawed, scraped and the protein content of the cell suspension determined using BCA Protein Assay Kit (23227, ThermoScientific, Rockford Ill.).
A general note: ELISA stands for enzyme-linked immunosorbent assay.

Test [5] shares this test system. In words: IFN-α production in human PBMCs (ELISA). The conditions noted are these: 2 μM for 24 hours; for pg/mL IFNα Av.: average; for pg/mL IFNα: individual wells. Type of test: cell-based.
The test system of test [6] is Influenza A H1N1 (A/CA/05/09). The experiment in a line: Anti-influenza virus cytoprotection assay in MDCK cells. Type of test: cell-based. The settings on record: in triplicate, read-out: IC50 against Influenza A H1N1.
The next test has as its target Cyclophilin B (Homo sapiens, UniProt P23284). The experiment in a line: Cyclophilin binding competitive ELISA. The conditions noted are these: human recombinant cyclophilin. An excerpt:
Plates were washed as described above. […] Plates were washed as described above.

Test [7] deals with HCV RNA replicon Genotype 1b. In words: HCV replicon assay, 1b replicon (LUC). The settings on record: Hepatitis C virus, 72 h, read-out: mean EC50 Genotype 1b. A general note: Replicon systems follow genome replication, usually without infectious particles.
From the text: Compounds were examined in the human hepatoma cell a HCV RNA replicon containing a stable luciferase (LUC) reporter. The HCV RNA replicon ET contains the 5′ end of HCV (with the HCV Internal Ribosome Entry Site (IRES) and the first few amino acids of the HCV core protein) which drives the production of neomycin phosphotransferase (NeoR) fusion protein. A luciferase reported is incorporated into 1b replicon. The EMCV IRES element controls the translation of the HCV structural proteins NS3-NS5. The NS3 protein cleaves the HCV polyprotein to release the mature NS3, NS4A, NS4B, NS5A and NS5B proteins that are required for HCV replication. At the 3′ end of the replicon is the authentic 3′ NTR of HCV. The activity of the LUC reporter is directly proportional to HCV replication levels and positive-control antiviral compounds produce a reproducible antiviral response using the LUC endpoint.
The compounds were dissolved in DMSO at six half-log concentrations. HCV replicon cells were plated out into 96 well plates dedicated for the analysis of cell numbers (cytotoxicity) or antiviral activity and the next day the compounds were added to the appropriate wells. […] Compound EC50 and EC90 values were derived from HCV RNA levels assessed as HCV RNA replicon derived LUC activity. […] Compound IC50 and IC90 values were calculated using a colorimetric assay as an indication of cell numbers and cytotoxicity. […]
In another test the target is Cyclophilin A (Homo sapiens, UniProt P62937). In words: Cyclophilin binding competitive ELISA. The conditions noted are these: human recombinant cyclophilin.
Cyclophilin A, sequence (P62937 whole entry): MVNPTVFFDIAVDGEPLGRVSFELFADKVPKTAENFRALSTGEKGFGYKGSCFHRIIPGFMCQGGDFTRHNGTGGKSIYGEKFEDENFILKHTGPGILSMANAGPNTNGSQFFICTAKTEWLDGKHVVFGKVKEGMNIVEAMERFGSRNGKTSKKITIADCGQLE
The mark [8] stands for this setting: HepaRG cells, HBs level by ELISA 12 days post-infection.
The mark [9] stands for this setting: donor CT2 (test 3) (HCV, cryopreserved PBMCs).
Where [10] appears, read: donor Healthy 2, background subtracted.

Cyclophilin B, sequence (P23284 34-216): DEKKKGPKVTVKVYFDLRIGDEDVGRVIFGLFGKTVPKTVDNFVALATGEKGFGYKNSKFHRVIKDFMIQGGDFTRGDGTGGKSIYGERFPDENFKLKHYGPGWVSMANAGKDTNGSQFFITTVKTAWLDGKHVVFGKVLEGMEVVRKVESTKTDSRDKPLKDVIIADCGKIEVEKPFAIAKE

Broadly, the IC50 is the midpoint of a concentration-inhibition curve. Regarding `CC=CC[C@@H](C)[C@@H](O)C1C(=O)NC(CC)C(=O)N(C)C(SCC2(N(C)C)CC2)C(=O)N(C)[C@@H](CC(C)(C)O)C(=O)NC(C(C)C)C(=O)N(C)C(CC(C)C)C(=O)NC(C)C(=O)NC(C)C(=O)N(C)C(CC(C)C)C(=O)N(C)C(CC(C)C)C(=O)N(C)C(C(C)C)C(=O)N1C` (stereo in doubt) [Compound A], the “pg/mL IL29 Av.” value in test [1] (donor Healthy 1) and in test [1] (donor Healthy 3) was “<LOQ” in each case. The “pg/mL IL29” value in test [1] (donor Healthy 1) and in [1] (donor Healthy 3) was “<LOQ” in each case. For the same compound, the IC50 in test [2] (DENV1, Huh-7, 120 h) is greater than 9000 nM; in [3] (setting [8]) it was 1600 nM. Besides, the “pg/mL IFNα” value is given as 4 pg/mL in [4] (donor CT2 (HCV), first test); 7 pg/mL in test [4] (setting [9]); “<LOQ” in test [5] (donor Healthy 1); “<LOQ” in test [5] (donor Healthy 2); “<LOQ” in test [5] (donor Healthy 3). Also, the “pg/mL IFNα Av.” value in test [5] (donor Healthy 1), in test [5] (donor Healthy 2) and in test [5] (donor Healthy 3) was “<LOQ” throughout.

On to `CC=CC[C@@H](C)[C@@H](O)C1C(=O)NC(CC)C(=O)N(C)C(SCC2(N(C)C(C)C)CC2)C(=O)N(C)[C@@H](CC(C)(C)O)C(=O)NC(C(C)C)C(=O)N(C)C(CC(C)C)C(=O)NC(C)C(=O)NC(C)C(=O)N(C)C(CC(C)C)C(=O)N(C)C(CC(C)C)C(=O)N(C)C(C(C)C)C(=O)N1C` (stereo in doubt) [Compound B], for which the “pg/mL IL29” value in test [1] (donor Healthy 1) is 20 pg/mL and <LOQ; in test [1] (setting [10]), “<LOQ”; in [1] (donor Healthy 3), “<LOQ”. For the same compound, the “pg/mL IL29 Av.” value in [1] (setting [10]) and in test [1] (donor Healthy 3) was “<LOQ” throughout. Also, the IC50 in [2] (Huh-7, 120 h, HuH7 cells, DENV1, 5 days, real-time RT-PCR of media) was 1000 nM; in test [3] (setting [8]) it was less than 1000 nM. Also, the “pg/mL IFNα” value in test [4] (setting [9]) is 8 pg/mL; in test [5] (donor Healthy 1), “<LOQ”; in [5] (donor Healthy 2), “<LOQ”; in test [5] (donor Healthy 3), “<LOQ”. In addition, the “pg/mL IFNα Av.” value in test [5] (donor Healthy 1), in [5] (donor Healthy 2) and in test [5] (donor Healthy 3) was “<LOQ” throughout.

For the compound `C/C=C/C[C@@H](C)[C@@H](O)C1C(=O)N[C@H](CC)C(=O)N(C)[C@H](SCC2(N(C)C)CCC2)C(=O)N(C)[C@@H](CC(C)C)C(=O)N(Cc2ccccc2)[C@H](C(C)C)C(=O)N(C)[C@H](CC(C)C)C(=O)N[C@H](C)C(=O)N[C@@H](C)C(=O)N(C)[C@H](CC(C)C)C(=O)N(C)[C@H](CC(C)C)C(=O)N(C)[C@H](C(C)C)C(=O)N1C` (stereo partly shown) [Compound F] (cyclo(A[dNMeL][dNMeL][dNMeV][ξNMeBmt][dAbu][X1][NMeL][X2][dNMeL][dA])), the IC50 was 1400 nM in test [2] (DENV1, Huh-7, 120 h); less than 1000 nM in test [3] (HepaRG); 5.4 µM in test [6].

Broadly, the EC50 is the concentration giving half of the maximal effect. Consider `C/C=C/C[C@@H](C)[C@@H](O)C1C(=O)N[C@H](CC)C(=O)N(C)[C@H](SCC2(NC)CC2)C(=O)N(C)[C@@H](CC(C)(C)O)C(=O)N[C@H](C(C)C)C(=O)N(C)[C@H](CC(C)C)C(=O)N[C@H](C)C(=O)N[C@@H](C)C(=O)N(C)[C@H](CC(C)C)C(=O)N(C)[C@H](CC(C)C)C(=O)N(C)[C@H](C(C)C)C(=O)N1C` (stereo partly shown) [Compound G] (cyclo(A[dNMeL][dNMeL][dNMeV][ξNMeBmt][dAbu][X4][NMeLeu(4-OH)][dV][dNMeL][dA])), for which the IC50 at Cyclophilin B stood at 50 nM; at Cyclophilin A, 29 nM. In test [7], the EC50 was 60 nM.

Take `C/C=C/C[C@@H](C)[C@@H](O)C1C(=O)N[C@H](CC)C(=O)N(C)[C@H](SCC2(NCC)CC2)C(=O)N(C)[C@@H](CC(C)(C)O)C(=O)N[C@H](C(C)C)C(=O)N(C)[C@H](CC(C)C)C(=O)N[C@H](C)C(=O)N[C@@H](C)C(=O)N(C)[C@H](CC(C)C)C(=O)N(C)[C@H](CC(C)C)C(=O)N(C)[C@H](C(C)C)C(=O)N1C` (stereo partly shown) [Compound H] (cyclo(A[dNMeL][dNMeL][dNMeV][ξNMeBmt][dAbu][X3][NMeLeu(4-OH)][dV][dNMeL][dA])): the IC50 came out at 16 nM on Cyclophilin B and 14 nM on Cyclophilin A. Also, the EC50 in test [7] was 40 nM.
